Test results reported in patent US12600716B2 (Gannex Pharma Co., Ltd., priority 2020, dated 2026).
Like-named read-outs stand apart in the source and are kept apart here.

Tests used:
human FXR protein = target: T1, human FXR protein (Homo sapiens, UniProt Q96RI1); assay: FXR agonist binding ability: time-resolved fluorescence (LanthaScreen) FXR/coactivator assay; assay type: biochemical; conditions: GST-labeled human FXR, fluorescein-labeled coactivator, TR-FRET
T1 construct: purchased Invitrogen
Procedure: FXR Agonist Binding Ability Evaluation of the activation effect of the compound of the present invention with regard to the binding of FXR to its co-stimulatory factor SRC-1 was conducted by using time-resolved analytical techniques. Protein: glutathione-S-transferase (GST)-labeled human FXR protein (Invitrogen) • 2. Coactivator: Fluorescein-labeled steroid receptor coactivator (SRC2-2) (Invitrogen) • 3. Detection reagent: LanthaScreen Time-Resolved Fluorescence Analysis Kit (Invitrogen) • 1. The compound was prepared into a 10 mM DMSO stock solution and stored in a −20° C. refrigerator for a long time. • 2. The compound was diluted to 1 mM before the experiment, and then the compound was diluted 3-fold to 10 concentration points using DMSO. Then use buffer G (Invitrogen, PV4553) to dilute these 10 concentration points by 50 times to become a working fluid. Add 10 μl of each working solution to each well of a 384-well plate. • 3. Prepare a human FXR protein solution (final concentration 20 nM) in chilled buffer G and add 5 μl of human FXR protein solution to each well of a 384-well plate. • 4. Prepare a mix of buffer G containing 2 μM fluorescein-labeled steroid receptor coactivator and 20 nM GST antibody. • 5. Add 5 μl of the mixture prepared in Step 4 to a 384-well plate. • 6. Centrifuge the 384-well plate at 1000 g for 1 minute. • 7. Incubate for 1 hour at room temperature in the dark. • 8. Read the 384-well plate at 520 nm and 495 nm on an Envision 2104 plate reader. • 9. Calculate the EC50 value of the activation effect of the compound.

hFXR-LBD-GAL4 = target: T2, hFXR-LBD-GAL4 (Homo sapiens, UniProt Q96RI1); assay: FXR agonist transactivation ability: luciferase reporter gene in HEK293T; assay type: cell-based; conditions: read-out: Cell activity
T2 construct: GAL4 (fusion partner); host or cells: HEK293T
T2 sequence (Q96RI1 262-486 limits assumed): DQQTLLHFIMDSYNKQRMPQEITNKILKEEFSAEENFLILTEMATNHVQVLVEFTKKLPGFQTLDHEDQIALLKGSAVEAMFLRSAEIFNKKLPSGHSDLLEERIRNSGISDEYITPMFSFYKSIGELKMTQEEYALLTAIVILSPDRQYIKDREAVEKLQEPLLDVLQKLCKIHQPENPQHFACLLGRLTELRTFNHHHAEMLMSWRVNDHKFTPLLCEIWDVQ
Procedure: FXR Agonist Transactivation Ability
Evaluation of the ability of the compound of the present invention to promote FXR transactivation was conducted by using luciferase reporter gene expression technology.
• 1. Cell line: HEK293T (Invitrogen) • 2. Expression plasmid: pBIND-hFXR-LBD-GAL4 (Promega), pGL4.35-luciferase (Promega) • 3. Cell culture medium: 10% serum and penicillin/streptomycin double antibody in DMEM medium • 4. Detection reagent: Steady-Glo fluorescence detection system (Promega). • 5. Transfection reagent: TransIT-293 Transfection Reagent (MIRUS BIO)
• 1. The compound was prepared into a 10 mM DMSO stock solution and stored in a −20° C. refrigerator for a long time. • 2. Resuscitation HEK293T cells were seeded in 10 cm culture dishes at a concentration of 5.5×10^6 and incubated for 16 hours at 37° C. in a 5% CO2 incubator. • 3. Return the transfection reagent to room temperature before transfection. The Trans-IT solution was added dropwise to Opti-MEM, and mixed by inversion for 5 minutes; the expression plasmid was added, mixed by inversion, and incubated at room temperature for 20 minutes. • 4. Add the transfection mixture from Step 3 to the prepared 10 cm dish in Step 2 and incubate for 5-6 hours in a 5% CO2 incubator. • 5. Dilute the compound 3 folds to 10 concentration points using DMSO; add 25 nl of compound per well in a 384-well plate using an Echo 550 sonic pipette; add HEK293T cells to the 384-well plate at a concentration of 15,000 cells/well; 37° C. incubate for 16-20 hours in a 5% CO2 incubator. • 6. Add 25 μl of Steady-Glo Fluorescent Reagent to each well and read the fluorescence on an Envision 2104 plate reader. • 7. Calculate the EC50 value of the activation of the compound.

[1] = Mouse pharmacokinetic studies (IV and PO); assay type: in vivo, Male CD-1 mice; conditions: for PO F: PO 10 mg/kg vs IV 2.0 mg/kg; for Vd / AUC(0-t) / clearance / half-life / Cmax / Tmax: male, CD-1, plasma; for clearance: read-out: IV Cl; for half-life: read-out: IV T½ (converted)
Procedure: Mouse Pharmacokinetic Studies
Typical PK study procedure. For i.v. PK studies, a group of three fasted Male CD-1 mice were dosed with the compound (2.0 mg/kg, 0.50 mg/mL in 5% solutol in saline, clear solution), and 0.02 mL blood was collected at 0.0830, 0.250, 0.500, 1.00, 2.00, 4.00, 8.00, 24.0 h. For PO PK studies, a group of three fasted Male CD-1 mice were dosed with the compound (10 mg/kg, 1 mg/mL in 5% solutol in saline, clear solution), and 0.02 mL blood was collected at 0.250, 0.500, 1.00, 2.00, 4.00, 6.00, 8.00, 24.0 h. The blood was collected into EP tubes (containing EDTA K20.85-1.15 mg) and centrifuged at 3,000 g or 3,200 g at 4° C. for 10 min) and plasma was isolated and divided into two vials. One was used for bioanalysis and one was kept as backup. The samples were kept at −60° C. or below, until being analyzed by LC MS/MS. The samples were analyzed with AB SCIEX INSTRUMENTS LC-MS/MS AU-Triple Quad 6500 Plus and data were processed with Phoenix WinNonlin 6.3 (IV-noncompartmental model and PO-noncompartmental model).

[2] = IV 2.0 mg/kg, read-out: IV AUC 0-t
[3] = PO 10 mg/kg, read-out: PO AUC 0-t

Compound	EC50 (human FXR protein)	EC50 (hFXR-LBD-GAL4)	PO F [1]	Vd ([1]; IV 2.0 mg/kg)	AUC(0-t) [1, 2]	clearance ([1]; IV 2.0 mg/kg)	half-life ([1]; IV 2.0 mg/kg)	Cmax ([1]; PO 10 mg/kg)	Tmax ([1]; PO 10 mg/kg)	AUC(0-t) [1, 3]
Cc1nc(Oc2c(F)ccc3cc(OCc4c(-c5c(Cl)cccc5Cl)noc4C4CC4)ccc23)ccc1C(=O)O [Compound 45, 6-((6-((5-cyclopropyl-3-(2,6-dichlorophenyl)isoxazol-4-yl)methoxy)-2-fluoronaphthalen-1-yl)oxy)-2-methylnicotinic acid]	< 50 nM	< 200 nM	15.7%	1.04 L/kg	1500 ng·h/mL	22.1 mL/min/kg	84 min	627 ng/mL	60 min	1140 ng·h/mL
Cc1nc(Oc2ccc3cc(OCc4c(-c5c(Cl)cccc5Cl)noc4C4CC4)ccc3c2)ccc1C(=O)O [Compound 10, 6-((6-((5-cyclopropyl-3-(2,6-dichlorophenyl)isoxazol-4-yl)methoxy)naphthalen-2-yl)oxy)-2-methylnicotinic acid]	50 to 500 nM	< 200 nM	52.6%	0.66 L/kg	3550 ng·h/mL	9.26 mL/min/kg	96 min	5500 ng/mL	25 min	9360 ng·h/mL
O=C(O)c1cccc(Oc2ccc3cc(OCc4c(-c5c(Cl)cccc5Cl)noc4C4CC4)ccc3c2)n1 [Compound 11, 6-((6-((5-cyclopropyl-3-(2,6-dichlorophenyl)isoxazol-4-yl)methoxy)naphthalen-2-yl)oxy)picolinic acid]	< 50 nM	500 to 1000 nM	33.3%	0.294 L/kg	4980 ng·h/mL	6.66 mL/min/kg	86.4 min	5730 ng/mL	30 min	8330 ng·h/mL
Cc1nc(Oc2cccc3cc(OCc4c(-c5c(Cl)cccc5Cl)noc4C4CC4)ccc23)ccc1C(=O)O [Compound 27, 6-((6-((5-cyclopropyl-3-(2,6-dichlorophenyl)isoxazol-4-yl)methoxy)naphthalen-1-yl)oxy)-2-methylnicotinic acid]	< 50 nM	< 200 nM	33.2%	0.897 L/kg	1690 ng·h/mL	19.7 mL/min/kg	96.6 min	2080 ng/mL	30 min	2780 ng·h/mL
O=C(O)c1ccc(F)cc1Oc1c(F)ccc2cc(OCc3c(-c4c(Cl)cccc4Cl)noc3C3CC3)ccc12 [Compound 44, 2-((6-((5-cyclopropyl-3-(2,6-dichlorophenyl)isoxazol-4-yl)methoxy)-2-fluoronaphthalen-1-yl)oxy)-4-fluorobenzoic acid]	< 50 nM	< 200 nM	23.7%	2.06 L/kg	559 ng·h/mL	60.4 mL/min/kg	73.8 min	384 ng/mL	56 min	646 ng·h/mL

Other lines, results leading:

EC50 (human FXR protein)	EC50 (hFXR-LBD-GAL4)	PO F [1]	Vd ([1]; IV 2.0 mg/kg)	AUC(0-t) [1, 2]	clearance ([1]; IV 2.0 mg/kg)	half-life ([1]; IV 2.0 mg/kg)	Cmax ([1]; PO 10 mg/kg)	Tmax ([1]; PO 10 mg/kg)	AUC(0-t) [1, 3]	Compound
< 50 nM	< 200 nM	28.6%	0.495 L/kg	1500 ng·h/mL	22.2 mL/min/kg	38.3 min	2150 ng/mL	30 min	2140 ng·h/mL	Cc1cc(C(=O)O)cnc1Oc1c(F)ccc2cc(OCc3c(-c4c(Cl)cccc4Cl)noc3C3CC3)ccc12 [Compound 47, 6-((6-((5-cyclopropyl-3-(2,6-dichlorophenyl)isoxazol-4-yl)methoxy)-2-fluoronaphthalen-1-yl)oxy)-5-methylnicotinic acid]
< 50 nM	< 200 nM	29.9%	0.663 L/kg	1180 ng·h/mL	28.4 mL/min/kg	58.6 min	2130 ng/mL	30 min	1740 ng·h/mL	Cc1cc(C(=O)O)cnc1Oc1cccc2cc(OCc3c(-c4c(Cl)cccc4Cl)noc3C3CC3)ccc12 [Compound 28, 6-((6-((5-cyclopropyl-3-(2,6-dichlorophenyl)isoxazol-4-yl)methoxy)naphthalen-1-yl)oxy)-5-methylnicotinic acid]
< 50 nM	< 200 nM	54.7%	1.36 L/kg	1400 ng·h/mL	24 mL/min/kg	61.8 min	1400 ng/mL	30 min	3810 ng·h/mL	O=C(O)c1ccc(Oc2ccc3c(F)c(OCc4c(-c5c(Cl)cccc5Cl)noc4C4CC4)ccc3c2)nc1 [Compound 32, 6-((6-((5-cyclopropyl-3-(2,6-dichlorophenyl)isoxazol-4-yl)methoxy)-5-fluoronaphthalen-2-yl)oxy)nicotinic acid]
< 50 nM	< 200 nM	12%	2.94 L/kg	330 ng·h/mL	105 mL/min/kg	56.4 min	209 ng/mL	18 min	198 ng·h/mL	O=C(O)c1ccnc(Oc2cccc3cc(OCc4c(-c5c(Cl)cccc5Cl)noc4C4CC4)ccc23)c1 [Compound 24, 2-((6-((5-cyclopropyl-3-(2,6-dichlorophenyl)isoxazol-4-yl)methoxy)naphthalen-1-yl)oxy)isonicotinic acid]
